Data from ChEMBL document CHEMBL5131521, “The N,N,O-Trisubstituted Hydroxylamine Isostere and Its Influence on Lipophilicity and Related Parameters” (ACS Med Chem Lett, 2022).
In brackets after ≈: the same amount, converted by molar mass.

Assays:
[1] = Metabolic stability in human liver microsomes assessed as intrinsic clearance at 1 uM measured upto 60 mins by LC-MS/MS analysis; assay type: ADME, Microsome; conditions: 1 h
[2] = Metabolic stability in mouse liver microsomes at 1 uM measured upto 60 mins by LC-MS/MS analysis; assay type: ADME, Microsome; conditions: 1 h
[3] = Metabolic stability in human liver microsomes assessed as half life at 1 uM measured upto 60 mins by LC-MS/MS analysis; assay type: ADME, Microsome; conditions: for t1/2: microsomes, 1 h, 1 µM; for half-life at 1 µM: liver microsomes
[4] = Metabolic stability in human liver microsomes assessed as compound remaining at 1 uM measured upto 60 mins in presence of NADPH for 15 mins by LC-MS/MS analysis; assay type: ADME, Microsome; conditions: for Stability: microsomes, 1 h, 1 µM; for remaining at 1 h, 1 µM: liver microsomes, read-out: Stability
[5] = Plasma protein binding in human assessed as free fraction at 1 mM by equilibrium dialysis assay; assay type: ADME, cell-free
[6] = Aqueous solubility of compound in pH 7.4 phosphate buffer; assay type: physicochemical
[7] = Metabolic stability in mouse liver microsomes assessed as compound remaining at 1 uM measured upto 60 mins in presence of NADPH for 15 mins by LC-MS/MS analysis; assay type: ADME, Microsome; conditions: for Stability: microsomes, 1 h, 1 µM; for remaining at 1 h, 1 µM: liver microsomes, read-out: Stability
[8] = Lipophilicity, logP of the compound by LC/UV/MS analysis; assay type: physicochemical; conditions: octanol/water
[9] = Lipophilicity, logD of compound at pH 7.4 by shake flask method; assay type: physicochemical; conditions: buffer
[10] = Metabolic stability in mouse liver microsomes assessed as half life at 1 uM measured upto 60 mins by LC-MS/MS analysis; assay type: ADME, Microsome; conditions: for half-life at 1 µM: liver microsomes; for t1/2: microsomes, 1 h, 1 µM
[11] = Metabolic stability in mouse liver microsomes assessed as intrinsic clearance at 1 uM measured upto 60 mins by LC-MS/MS analysis; assay type: ADME, Microsome; conditions: 1 h
HepG2 = experiment: Cytotoxicity against human HepG2 cells assessed as inhibition of cell growth incubated for 3 days by trypan blue assay; assay type: functional, cell-based; conditions: HepG2, 72 h

fraction unbound [5]	solubility [6] [µM]	logP [8]	logD [9]	Compound	further results
0.106	244 (≈ 61.1 µg/mL)	3.4	–	COc1ccccc1OCCCC1CCOCC1	CLint [1]: 77 µL/min/mg; Stability [2]: Unstable; t1/2 [3]: 18.07 min; Stability [4]: 50.46%; Stability ([7]; BLD = below limit of detection): Bld
0.322	287 (≈ 98.3 µg/mL)	5	2.7	c1ccc2c(c1)CCCC2OCCN1CCN(C2CCCCC2)CC1 (stereo not given)	t1/2 [3]: 5.67 min; Stability [4]: 17.01%; half-life at 1 µM [10]: 3.12 min; remaining at 1 h, 1 µM [7]: 3.98%
–	–	6.6	–	CCCCCOC1CCc2ccccc2C1 (stereo not given)	–
–	–	5.3	3.3	CCCCCCN1CCc2ccccc2C1	–
0.153	275 (≈ 93.9 µg/mL)	5.3	1.8	c1ccc2c(c1)CCCN2CCCN1CCN(C2CCCCC2)CC1	half-life at 1 µM [3]: 5.06 min; remaining at 1 h, 1 µM [4]: 13.7%; half-life at 1 µM [10]: 4.07 min; remaining at 1 h, 1 µM [7]: 8.5%
–	–	5.8	0.9	c1ccc(COCCCCN2CCCCC2)cc1	–
0.625	293 (≈ 74.2 µg/mL)	2.1	1.3	COc1ccccc1OCCON1CCOCC1	CLint [1]: 14 µL/min/mg; t1/2 [3]: 98.54 min; Stability [4]: 91.54%; t1/2 [10]: 10.75 min; Stability [7]: 36.43%; CLint [11]: 129 µL/min/mg
–	–	6.6	–	c1ccc(COCCCCC2CCCCC2)cc1	–
–	–	6.6	–	c1ccc(CCCC2CCCCC2)cc1	–
–	–	–	–	O=C(CCCCCCC(=O)Nc1ccccc1)NO [VORINOSTAT]	IC50 (HepG2): 3.2 ng/mL (≈ 0.0121 µM)
–	–	5.1	1	c1ccc(CCCN2CCCCC2)cc1	–
0.0519	288 (≈ 98.1 µg/mL)	6.2	3.9	c1ccc2c(c1)CCCC2CCCN1CCN(C2CCCCC2)CC1 (stereo not given)	CLint [1]: 275 µL/min/mg; half-life at 1 µM [3]: 5.04 min; remaining at 1 h, 1 µM [4]: 13.6%; half-life at 1 µM [10]: 3.05 min; remaining at 1 h, 1 µM [7]: 3.7%; CLint [11]: 455 µL/min/mg
–	–	5.9	4.7	CCCCCON1CCc2ccccc2C1	–
–	–	4.8	3.2	c1ccc(CCON2CCCCC2)cc1	–
0.573	273 (≈ 68.6 µg/mL)	2.3	1.3	COc1ccccc1OCCCN1CCOCC1	CLint [1]: < 5 µL/min/mg; half-life at 1 µM [3]: > 300 min; remaining at 1 h, 1 µM [4]: 91%; half-life at 1 µM [10]: 4.4 min; remaining at 1 h, 1 µM [7]: 10.2%; CLint [11]: 315 µL/min/mg
–	–	6.2	–	c1ccc(COCCCOC2CCCCC2)cc1	–
–	–	7.9	–	CCCCCCC1CCc2ccccc2C1 (stereo not given)	–
0.544	275 (≈ 69.4 µg/mL)	2.1	–	COc1ccccc1OCCOC1CCOCC1	CLint [1]: 17 µL/min/mg; t1/2 [3]: 83.41 min; Stability [4]: 82.92%; t1/2 [10]: 7.06 min; Stability [7]: 24.08%; CLint [11]: 196 µL/min/mg
–	–	4.8	3	c1ccc(COCCCON2CCCCC2)cc1	–
0.341	> 300	5	2.4	c1ccc2c(c1)CCCN2OCCN1CCN(C2CCCCC2)CC1	t1/2 [3]: 13.74 min; Stability [4]: 48.07%; half-life at 1 µM [10]: 3.19 min; remaining at 1 h, 1 µM [7]: 4.32%
–	–	6.2	–	c1ccc(CCOC2CCCCC2)cc1	–
